Data on 35 compounds can be found in patent US20250197905A1, “LEGIONAMINIC ACID GLYCOSYLTRANSFERASES FOR CHEMOENZYMATIC SYNTHESIS OF GLYCANS AND GLYCOCONJUGATES” (The Regents of the University of California, priority 2022, published 2025).

Experiment [1] relates to His6-AbGtr18. Put plainly: Effects of metal ions, EDTA, and DTT on the activity of His6-AbGtr18. The settings on record: 10 mM additive; 40° C., 30 minutes; pH 6.0; donor CMP-Leg5,7Ac2. In kind it is biochemical, A. baumannii K8. As for the experimental part: Effects of metal ions, EDTA, and a reducing reagent DTT on the activity of His6-AbGtr18. Enzymatic assays were carried out in duplicate at 40° C. for 30 minutes in a total volume of 10 μL in citric acid-sodium citrate buffer ([…], pH 6.0) containing 1 mM CMP-Leg5,7Ac2, 1 mM GalNAcα2AA, His6-AbGtr18 (0.64 μM), and 10 mM of CaCl2), CuSO4, MgCl2, MnCl2, NiSO4, ZnCl2, ethylenediaminetetraacetic acid (EDTA), or dithiothreitol (DTT). Reactions without metal ions, EDTA, or DTT were used as controls. The reactions were quenched by adding 40 μL methanol. Samples were centrifuged, and then analyzed by UHPLC as described above for pH profile studies.

The subject of experiment [2] is MBP-AbGtr18-His6. In kind it is biochemical, A. baumannii K8.
The subject of experiment [3] is LpCLS or NmCSS, with or without PmAldolase. It is filed as biochemical.
For experiment [4], the system named is His6-AbGtr18. In kind it is biochemical, A. baumannii K8.

Where “and” joins values, the source holds several entries; their conditions need not be identical. Equal entries are not always repeated.

For `O[C@H](CS)[C@H](O)CS` (racemic) [DTT, dithiothreitol], the “Effect on the activity of AbGtr18” value in experiment [1] was “no significant effect”.
`CC(=O)N[C@@H]([C@H](O)[C@H](NC(C)=O)[C@@H](O)CC(=O)C(=O)O)[C@@H](C)O` [CMP-Leg5,7Ac2, 5,7-diacetamido-3,5,7,9-tetradeoxy-D-glycero-D-galacto-non-2-ulosonic acid]: in experiment [2], the “Sialoside yield (%) 0.5 h” value is 53.5 ± 0.5% and 56.6 ± 1.6%; the “Sialoside yield (%) 20 h” value is 72.6 ± 0.1% and 99.0 ± 0.6%; the “Suitability as donor substrate for MBP-AbGtr18-His6 (in words)” value (“Suitability as donor substrate” below) is “used efficiently”. Also, in experiment [3], the “CMP-Sia Yield (%)” value is reported as above 99%.
In the case of `[N-]=[N+]=NCC(O)C(N=[N+]=[N-])C1OC(OP(=O)(O)OCC2OC(n3ccc(N)nc3=O)C(O)C2O)(C(=O)O)CC(O)C1N=[N+]=[N-]` (stereo not drawn) [CMP-Neu5,7,9triN3], the “Suitability as donor substrate” value in experiment [2] was “limited activity”.
On the same count and under the same terms, next, `[N-]=[N+]=N[C@@H]([C@@H]1OC(OP(=O)(O)OC[C@H]2O[C@@H](n3ccc(N)nc3=O)[C@H](O)[C@@H]2O)(C(=O)O)C[C@H](O)[C@H]1N=[N+]=[N-])[C@H](O)CO` (stereo partly drawn) [CMP-Neu5,7diN3]: “limited activity”.
On the same count and under the same terms, next, `CC(=O)NC1C(O)CC(OP(=O)(O)OCC2OC(n3ccc(N)nc3=O)C(O)C2O)(C(=O)O)OC1C(N=[N+]=[N-])C(O)CO` (stereo not drawn) [CMP-Neu5Ac7N3]: “suitable but less efficient donor substrates”.
As to `CC(=O)N[C@H]1[C@H]([C@H](O)[C@H](O)CN=[N+]=[N-])OC(OP(=O)(O)OC[C@H]2O[C@@H](n3ccc(N)nc3=O)[C@H](O)[C@@H]2O)(C(=O)O)C[C@@H]1O` (stereo partly drawn) [CMP-Neu5Ac9N3], the “Suitability as donor substrate” value in experiment [2] is on record as “efficient”.
Same read-out and setting: in the case of `[N-]=[N+]=NCC(=O)N[C@H]1[C@H]([C@H](O)[C@H](O)CO)OC(OP(=O)(O)OC[C@H]2O[C@@H](n3ccc(N)nc3=O)[C@H](O)[C@@H]2O)(C(=O)O)C[C@@H]1O` (stereo partly drawn) [CMP-Neu5Az] it was “efficient”.
The same measure, in the same setting: in the case of `Nc1ccn([C@@H]2O[C@H](COP(=O)(O)O[C@@]3(C(=O)O)C[C@H](O)[C@@H](NC(=O)CO)[C@H]([C@H](O)[C@H](O)CO)O3)[C@@H](O)[C@H]2O)c(=O)n1` [CMP-Neu5Gc] it was “suitable but less efficient donor substrates”; in that of `[N-]=[N+]=NC1C(O)CC(OP(=O)(O)OCC2OC(n3ccc(N)nc3=O)C(O)C2O)(C(=O)O)OC1C(O)C(O)CO` (stereo not drawn) [CMP-Neu5N3], “poor donor substrates”.
Consider `[Ca+2].[Cl-].[Cl-]` [Ca^2+, CaCl2], for which the “Effect on the activity of AbGtr18” value in experiment [1] is recorded as “no significant effect”.
Consider `O=S(=O)([O-])[O-].[Cu+2]` [Cu^2+, CuSO4], for which, in experiment [1], the “Effect on the activity of AbGtr18” value is “decreased the reaction yields”.
For `CC(=O)N[C@H]1[C@@H](OCCCNC(=O)OCc2ccccc2)O[C@H](CO)[C@H](O)[C@@H]1O` [GalNAcαProNHCbz], in experiment [4], the “Activity of His6-AbGtr18 towards acceptor (in words)” value (shortened to “Activity … (in words)”) is given as “lower efficiency”, the “Yield (%) 15 min” value is 14.6 ± 1.1% and the “Yield (%) 20 h” value is 82.5 ± 0.6%.
On to `CC(=O)N[C@H]1[C@H](OCCCNC(=O)OCc2ccccc2)O[C@H](CO)[C@H](O)[C@@H]1O` [GalNAcβProNHCbz], for which, in experiment [4], the “Activity … (in words)” value is reported as “much lower efficiencies”, the “Yield (%) 15 min” value worked out at 1.7 ± 0.2% and the “Yield (%) 20 h” value is reported as 33.5 ± 0.8%.
`O=[N+]([O-])c1ccc(O[C@H]2O[C@H](CO)[C@H](O)[C@H](O)[C@H]2O)cc1` [GalαpNP, 4-Nitrophenyl-α-D-galactopyranoside]: in experiment [4], the “Activity … (in words)” value is listed as “much lower efficiencies” and the “Yield (%) 20 h” value is on record as 16.7 ± 0.2%.
In the same order, the values of `CC(=O)N[C@H]1[C@@H](OCCCNC(=O)OCc2ccccc2)O[C@H](CO)[C@H](O)[C@@H]1O[C@@H]1O[C@H](CO)[C@H](O)[C@H](O)[C@H]1O` [Galβ1-3GalNAcαProNHCbz] are “trace activity” and “Trace^[e]”.
In the same order, the values of `CC(=O)N[C@H]1[C@H](OCCCNC(=O)OCc2ccccc2)O[C@H](CO)[C@H](O)[C@@H]1O[C@@H]1O[C@H](CO)[C@H](O)[C@H](O)[C@H]1O` [Galβ1-3GalNAcβProNHCbz] are “trace activity” and “Trace”.
Take `CC(=O)N[C@H]1[C@H](OCCCNC(=O)OCc2ccccc2)O[C@H](CO)[C@@H](O)[C@@H]1O[C@@H]1O[C@H](CO)[C@H](O)[C@H](O)[C@H]1O` [Galβ1-3GlcNAcβProNHCbz]: in experiment [4], the “Activity … (in words)” value was “much lower efficiencies”, the “Yield (%) 15 min” value amounted to 0.9 ± 0.1% and the “Yield (%) 20 h” value was 23.9 ± 0.3%.
As to `O=[N+]([O-])c1ccc(O[C@@H]2O[C@H](CO)[C@H](O)[C@H](O)[C@H]2O)cc1` [GalβpNP, 4-nitrophenyl β-D-galactopyranoside], in experiment [4], the “Activity … (in words)” value is on record as “trace activity” and the “Yield (%) 20 h” value amounted to 1.6 ± 0.1%.
With `CC(=O)N[C@H]1[C@@H](OCCCNC(=O)OCc2ccccc2)O[C@H](CO)[C@@H](O)[C@@H]1O` [GlcNAcαProNHCbz], in experiment [4], the “Activity … (in words)” value is given as “much lower efficiencies”, the “Yield (%) 15 min” value is listed as 0.5 ± 0.1% and the “Yield (%) 20 h” value was 20.4 ± 0.1%.
`CC(=O)N[C@H]1[C@H](OCCCNC(=O)OCc2ccccc2)O[C@H](CO)[C@@H](O)[C@@H]1O` [GlcNAcβProNHCbz]: in experiment [4], the “Activity … (in words)” value is on record as “trace activity” and the “Yield (%) 20 h” value is reported as 1.0 ± 0.1%.
As for `O=C(O)C1(O)C[C@H](O)[C@@H](O)[C@H]([C@H](O)[C@H](O)CO)O1` (stereo partly drawn) [Kdn], in experiment [2], the “Sialoside yield (%) 20 h” value is recorded as 9.6 ± 0.1% and the “Suitability as donor substrate” value is recorded as “poor donor substrates”. Further, the “CMP-Sia Yield (%)” value in experiment [3] was above 99%.
As to `CC(=O)N[C@H]1[C@H](OCCCNC(=O)OCc2ccccc2)O[C@H](CO)[C@@H](O[C@@H]2O[C@H](CO)[C@H](O)[C@H](O)[C@H]2O)[C@@H]1O` [LacNAcβProNHCbz], in experiment [4], the “Activity … (in words)” value is reported as “limited activity” and the “Yield (%) 20 h” value worked out at 7.7 ± 0.1%.
The like results for `O=C(NCCCO[C@@H]1O[C@H](CO)[C@@H](O[C@@H]2O[C@H](CO)[C@H](O)[C@H](O)[C@H]2O)[C@H](O)[C@H]1O)OCc1ccccc1` [LacβProNHCbz] were, in that order, “limited activity” and 13.8 ± 0.2%.
Consider `C[C@@H](O)[C@@H](N=[N+]=[N-])[C@@H]1OC(O)(C(=O)O)C[C@H](O)[C@H]1N=[N+]=[N-]` (stereo partly drawn) [Leg5,7diN3], for which, in experiment [2], the “Sialoside yield (%) 0.5 h” value was determined as 44.3 ± 1.6%, the “Sialoside yield (%) 20 h” value was determined as 68.4 ± 1.5% and the “Suitability as donor substrate” value is listed as “suitable but less efficient donor substrates”. For the same compound, the “CMP-Sia Yield (%)” value in experiment [3] is listed as above 99%.
For the compound `CC(=O)NC[C@H]1OC(O)[C@@H](NC(C)=O)[C@@H](O)[C@@H]1NC(C)=O` (stereo partly drawn) [Man2,4,6triNAc], the “Sialoside yield (%) 20 h” value in experiment [2] is 2.8 ± 0.1%. The “CMP-Sia Yield (%)” value in experiment [3] was 24.1 ± 1.1%.
Take `CC(=O)N[C@H]1[C@H](O)[C@H](NC(C)=O)C(O)O[C@@H]1CO` (stereo partly drawn) [Man2,4diNAc]: in experiment [2], the “Sialoside yield (%) 0.5 h” value is 5.5 ± 0.1% and the “Sialoside yield (%) 20 h” value was 30.3 ± 0.3%. The “CMP-Sia Yield (%)” value in experiment [3] is given as 51.5 ± 0.9%.
As to `[N-]=[N+]=NC1C(O)OC(CO)[C@@H](O)[C@@H]1O` (stereo partly drawn) [Man2N3], the “Sialoside yield (%) 20 h” value in experiment [2] is recorded as “Trace”. Also, the “CMP-Sia Yield (%)” value in experiment [3] came to 57.6 ± 0.1%.
For `CC(=O)N[C@@H]1C(O)O[C@H](CO)[C@@H](N=[N+]=[N-])[C@@H]1O` (stereo partly drawn) [ManNAc4N3], in experiment [2], the “Sialoside yield (%) 0.5 h” value is 50.6 ± 0.5% and the “Sialoside yield (%) 20 h” value was 72.5 ± 0.1%. Also, in experiment [3], the “CMP-Sia Yield (%)” value was found to be 84.4 ± 1.6%.
In the same order, the values of `CC(=O)N[C@@H]1C(O)O[C@H](CN=[N+]=[N-])[C@@H](O)[C@@H]1O` (stereo partly drawn) [ManNAc6N3] are 55.5 ± 0.6%, 96.0 ± 2.1% and above 99%.
In the same order, the values of `CC(=O)N[C@H]1[C@@H](O)[C@H](O)[C@@H](CO)O[C@@H]1O` [ManNAc] are 37.6 ± 0.4%, 71.1 ± 0.4% and above 99%.
In the same order, the values of `[N-]=[N+]=NCC(=O)NC1C(O)OC(CO)C(O)C1O` (stereo not drawn) [ManNAz] are 57.3 ± 0.4%, 98.4 ± 1.8% and above 99%.
Consider `O=C(CO)N[C@@H]1C(O)O[C@H](CO)[C@@H](O)[C@@H]1O` (stereo partly drawn) [ManNGc], for which, in experiment [2], the “Sialoside yield (%) 0.5 h” value came out at 13 ± 0.4% and the “Sialoside yield (%) 20 h” value stood at 71.6 ± 2.5%. The “CMP-Sia Yield (%)” value in experiment [3] is on record as above 99%.
With `O=C[C@@H](O)[C@@H](O)[C@H](O)[C@H](O)CO` [Mannose], in experiment [2], the “Sialoside yield (%) 20 h” value worked out at 5.0 ± 0.3%. For the same compound, the “CMP-Sia Yield (%)” value in experiment [3] is 77.7 ± 1.6%.
For the compound `CC(=O)N[C@H]1[C@H]([C@@H](O)[C@@H](O)CO)O[C@@](O)(C(=O)O)C[C@@H]1O` [Neu5Ac], in experiment [2], the “Sialoside yield (%) 0.5 h” value is listed as 47.4 ± 1.7%, the “Sialoside yield (%) 20 h” value stood at 93.3 ± 0.6% and the “Suitability as donor substrate” value is reported as “efficient”. Further, the “CMP-Sia Yield (%)” value in experiment [3] is reported as above 99%.
GalNAcα2AA: in experiment [4], the “Activity … (in words)” value is “most reactive”, the “Yield (%) 15 min” value was 35.7 ± 2.2% and the “Yield (%) 20 h” value came to 78.1 ± 0.6%.
